Test [1] addresses T1, membranes prepared from EA-Hy926 cells (integrin αvβ3) (Homo sapiens, UniProt P05106+P06756).
T1 construct: membranes from the human endothelial adenocarcinoma cell line EA-Hy926 were prepared; endogenous in cells; host or cells: EA-Hy926 (human endothelial cell line), purified membrane fraction
The test can be described thus: Competitive 125I-echistatin binding to membranes prepared from EA-Hy926 cells. The settings on record: competition with 125I-echistatin, 1 hour at 37° C., read-out: affinity (inhibition constant). How it is done:
The inhibition constant was measured using a previously-described membrane binding assay (Indrevoll et al, Bioorg & Med Chem Lett, 2006, 16, 6190-6193). In brief, membranes from the human endothelial adenocarcinoma cell line EA-Hy926 were prepared and the Kd calculated for the purified membrane fraction. A competitive binding assay was then established to measure inhibition constants. ^125I-echistatin (GE Healthcare; Code IM304) was used as the labelled ligand and cold echistatin as a reference standard. A total of sixteen dilutions of cold test compound (either cold echistatin or cold PET tracer) were prepared and mixed with a combination of ^125I-echistatin and membrane prior to incubation for 1 hour at 37° C. Following several washes, the bound material was harvested on a filter using a Skatron micro harvester. The filterspots were finally excised and counted in a Packard γ-counter.

The test system of the next test is rat livers. Type of test: in vivo. The protocol:
Outbred male Sprague Dawley rats (180-200 g; Charles River) were used in all bile duct ligation (BDL) and sham studies. After 6 days acclimatization rats were divided into 2 groups (BDL group and sham group). For the BDL animals, the abdomen was shaved and swabbed with betadine solution followed by 5 mg/kg carprofen subcutaneously (s.c.) and 5 mg/kg bupronorphine s.c. and under Isoflurane anaesthesia a mid-line laparotomy was performed and the common bile duct located. Bile duct was double ligated, the first ligation made between the junction of the hepatic ducts and the second above the entrance of the pancreatic ducts. The second group (sham animals) abdomen was shaved and swabbed with betadine solution followed by 5 mg/kg carprofen s.c. and 5 mg/kg bupronorphine s.c. Animals underwent sham surgery where bile duct was manipulated and a suture passed under the bile duct. Before closing 2-3 ml saline was administered into the peritoneum of each animal. […] Animals were closely monitored for the duration of the experiment.
For assessment of PET Tracer 1 in the BDL rat model, static PET images were acquired longitudinally (imaged at 60-90 minutes post-injection) at days 2, 5, 9, 15 and 30 post bile duct ligation surgery or sham surgery. […] Data was analysed using Asipro and Amide software. […]

The test system of a further test is alcoholic liver fibrosis. The settings on record: baboons; cited from earlier work.

Results on 2 compounds are retold here after patent US20120100072A1, “PET IMAGING OF FIBROGENESIS” (GE HEALTHCARE LIMITED, priority 2009, published 2012).

Consider `N=C(N)NCCC[C@@H]1NC(=O)[C@@H]2CSSC[C@H](NC(=O)[C@H](CC(=O)O)NC(=O)CNC1=O)C(=O)N[C@@H](Cc1ccccc1)C(=O)N[C@H](C(=O)NCCOCCOCCOCCNC(=O)COCC(N)=O)CSCC(=O)N[C@@H](CCCCNC(=O)COCC(=O)NCCOCCOCCOCCOCCOCCNC(=O)CO/N=C/c1ccc([18F])cc1)C(=O)N2` [PET Tracer 1], for which, in test [1], the Ki lay within 5 to 10 nM. In addition, the “difference in uptake between BDL liver and sham” value with rat livers (day 30 post surgery) is “no significant difference”. The “difference in liver retention between BDL and sham operated animals” value in the test with rat livers (days 2-15 post surgery (p<0.05)) was “significant difference”.

As to “Polyenephosphatidylcholine [Polyenephosphatidylcholine (PPC)]”, the “effect on alcoholic liver fibrosis” value with alcoholic liver fibrosis was “prevented alcoholic liver fibrosis”.
